# Test results from patent US20260014092A1, “EXTRACELLULAR VESICLES FROM MICROALGAE, THEIR USE FOR VACCINES AND FOR IMMUNOMODULATION” (AGS THERAPEUTICS SAS, priority 2023, published 2026).
# Several values for one entry are separate records, joined by “and”; a condition that tells them apart may be missing. Identical values can stand only once. In the oligonucleotide strings, read from the 5' end, every base follows the letter of its sugar. An asterisk marks phosphorothioate; unmarked linkages are phosphodiester. Other units and linkages are bracketed, terminal groups are in braces. A string of capitals states the bases alone. d = 2'-deoxy (DNA)
# Experiments:
# [1] = cited from earlier work
# [2] = system: DSS-induced acute experimental colitis; assay: DSS-induced acute colitis (IBD model): Disease Activity Index (DAI); format: in vivo, C57BL/6 female mice; set-up: scale not given here; details: i.r.
# Protocol: In mice, the disease can be induced by the treatment with Dextran Sodium Sulfate (DSS) to create a disease model for the evaluation of experimental therapies. Thus, the treatment of mice suffering from DSS-induced acute experimental colitis is a widely used animal model for the evaluation of therapies against the IBD disease. In our case, acute colitis was induced in mice by DSS 3% in drinking water for eight days. […] All handling of animals was conducted carefully to reduce stress to the minimum. All the experiments were performed in compliance with the guidelines of the French Ministry of Agriculture for experiments with laboratory animals.
# Animals were randomized before treatment group's allocation based on body weight. The disease was induced by administration of DSS in drinking water (3%, w/v, MW: 40000, TdB Consultancy AB) in C57BL/6 female mice at 9 weeks of age. Mice were administered with test compounds either at D3 and D6 (M1, M3 and M5 intrarectal), or daily from D3 to D6 (M2 and M4, per os). Experimental groups were as follows: seven animals per group; a total of 49 mice.
# Mice were euthanized at D8; samples were harvested to determine the extent of intestinal inflammation using various quantitative and semi quantitative methods including body weight evolution, clinical score (Disease Activity index; DAI, Table 13, below), large intestine measurement, cytokine analysis in colon and/or ileum tissue (TNFα, TGFβ, IFNα, IFNγ, IL-6 and IL-17A) and intestinal and colon histopathology for inflammation analysis, as follows and as summarized in Table 14, below.
# In-Life Samples (all groups) • Bodyweight (daily) • Disease Activity Index (DAI) (diarrhea and blood in stool)
# The life samples were recovered every day: i. body weight, ii. diarrhea, and iii. blood in stool and used to determine the disease activity index (DAI). The results are summarized in Table 33, for each animal in each group for seven consecutive days.
compound,measurement,setting,value
CCCCCCCCCCCCCCCCCCCCCC[N+]1=C(/C=C/C=C2/N(CCCCCCCCCCCCCC)c3ccccc3C2(C)C)C(C)(C)c2ccccc21.[I-] [PKH26],in vivo half-life,[1],over 100 days
ODN 1585 (DNA dG*dG*dGdGdTdCdAdAdCdGdTdTdGdAdG*dG*dG*dG*dG*dG) [ODNA],"Cumulative score (DAI), Mean","[2]; D 0, group mean, D 3 and D 6, 50 μg/mouse",0.00
same,Cumulative score (DAI),"[2]; D 0, individual mice, D 3 and D 6, 50 μg/mouse",0
same,"Cumulative score (DAI), Mean","[2]; D 1, group mean, D 3 and D 6, 50 μg/mouse",0.14
same,Cumulative score (DAI),"[2]; D 1, individual mice, D 3 and D 6, 50 μg/mouse",0 (6×) and 1
same,"Cumulative score (DAI), Mean","[2]; D 2, group mean, D 3 and D 6, 50 μg/mouse",0.14
same,Cumulative score (DAI),"[2]; D 2, individual mice, D 3 and D 6, 50 μg/mouse",0 (6×) and 1
same,"Cumulative score (DAI), Mean","[2]; D 3, group mean, D 3 and D 6, 50 μg/mouse",0.14
same,Cumulative score (DAI),"[2]; D 3, individual mice, D 3 and D 6, 50 μg/mouse",0 (6×) and 1
same,"Cumulative score (DAI), Mean","[2]; D 4, group mean, D 3 and D 6, 50 μg/mouse",1.71
same,Cumulative score (DAI),"[2]; D 4, individual mice, D 3 and D 6, 50 μg/mouse",2 and 5 and 3 and 1 (2×) and 0 (2×)
same,"Cumulative score (DAI), Mean","[2]; D 5, group mean, D 3 and D 6, 50 μg/mouse",4.14
same,Cumulative score (DAI),"[2]; D 5, individual mice, D 3 and D 6, 50 μg/mouse",2 and 8 and 4 (2×) and 3 (2×) and 5
same,"Cumulative score (DAI), Mean","[2]; D 6, group mean, D 3 and D 6, 50 μg/mouse",6.14
same,Cumulative score (DAI),"[2]; D 6, individual mice, D 3 and D 6, 50 μg/mouse",7 (4×) and 6 (2×) and 3
same,"Cumulative score (DAI), Mean","[2]; D 7, group mean, D 3 and D 6, 50 μg/mouse",6.71
same,Cumulative score (DAI),"[2]; D 7, individual mice, D 3 and D 6, 50 μg/mouse",8 (3×) and 7 (2×) and 6 and 3
"cobitolimob (DNA GGAACAGTTCGTCCATGGC; listed as DNA, chemistry not given here) [ODNX]","Cumulative score (DAI), Mean","[2]; D 0, group mean, D 3 and D 6, 100 μg/mouse",0.00
same,Cumulative score (DAI),"[2]; D 0, individual mice, D 3 and D 6, 100 μg/mouse",0
same,"Cumulative score (DAI), Mean","[2]; D 1, group mean, D 3 and D 6, 100 μg/mouse",0.00
same,Cumulative score (DAI),"[2]; D 1, individual mice, D 3 and D 6, 100 μg/mouse",0
same,"Cumulative score (DAI), Mean","[2]; D 2, group mean, D 3 and D 6, 100 μg/mouse",0.14
same,Cumulative score (DAI),"[2]; D 2, individual mice, D 3 and D 6, 100 μg/mouse",0 (6×) and 1
same,"Cumulative score (DAI), Mean","[2]; D 3, group mean, D 3 and D 6, 100 μg/mouse",0.57
same,Cumulative score (DAI),"[2]; D 3, individual mice, D 3 and D 6, 100 μg/mouse",0 (5×) and 3 and 1
same,"Cumulative score (DAI), Mean","[2]; D 4, group mean, D 3 and D 6, 100 μg/mouse",2.43
same,Cumulative score (DAI),"[2]; D 4, individual mice, D 3 and D 6, 100 μg/mouse",5 and 3 (2×) and 0 (2×) and 2 and 4
same,"Cumulative score (DAI), Mean","[2]; D 5, group mean, D 3 and D 6, 100 μg/mouse",4.14
same,Cumulative score (DAI),"[2]; D 5, individual mice, D 3 and D 6, 100 μg/mouse",4 (3×) and 5 (2×) and 1 and 6
same,"Cumulative score (DAI), Mean","[2]; D 6, group mean, D 3 and D 6, 100 μg/mouse",5.71
same,Cumulative score (DAI),"[2]; D 6, individual mice, D 3 and D 6, 100 μg/mouse",7 and 6 and 4 and 5 (2×) and 3 and 10
same,"Cumulative score (DAI), Mean","[2]; D 7, group mean, D 3 and D 6, 100 μg/mouse",7.43
same,Cumulative score (DAI),"[2]; D 7, individual mice, D 3 and D 6, 100 μg/mouse",10 (2×) and 7 and 5 and 6 (2×) and 8
